In article PMC5557466, “Precision medicine approaches to lung adenocarcinoma with concomitant MET and HER2 amplification” (BMC Cancer, 2017):

Legend:
Format in all cases: cell-based, human
033 T PDX cells = assay: In vitro drug sensitivity assay (ATPlite cell viability, 6 days, sphere culture); settings: for IC50: Homo sapiens, primary culture in serum-free sphere conditions; for effect on 033 T cell proliferation (in words): in vitro drug screen
Protocol: (§1) Primary cultures of PDX cells in the serum-free sphere culture conditions were seeded in 384-well plates, at 500 cells per well. Two hours after plating, cells were treated with a drug library in three-fold and 10-point serial dilutions (n = 3, for each condition). Cells were incubated for 6 days at 37 °C, in a 5% CO2 humidified incubator, and the cell viability was analyzed using an adenosine triphosphate monitoring system based on firefly luciferase (ATPlite 1step; PerkinElmer, Waltham, MA, USA). […] The drugs were stored and diluted according to the manufacturer’s instructions. The tested concentrations for each drug were empirically derived, in order to investigate a clinically relevant spectrum of drug activities. IC50 values were calculated as an average of triplicate experiments using S+ Chip Analyzer (Samsung Electro-Mechanics Company, Ltd., Suwon, Korea). In order to investigate the effects of the treatment with targeted agents, signal transduction assays were performed using primarily cultured NSCLC PDX cells, which were maintained overnight in serum-free sphere culture conditions, without growth factors, incubated for 1 h with each inhibitor, and pulsed with original culture medium supplemented with bFGF/EGF/NRG/IGF for 15 min.

033 T cells [1] = assay: Tumor sphere formation in 033 T cell cultures
Protocol: (§2) Xenograft tumor specimens were dissociated into single cells according to previously published protocol. Dissociated cells were cultured in Neurobasal medium-A, supplemented with N2 (×1/2; Life Technologies, Carlsbad, CA, USA), B27 (×1/2; GIBCO), basic fibroblast growth factor (bFGF; 25 ng/mL; R&D Systems, Minneapolis, MN, USA), EGF (25 ng/mL; R&D Systems, Minneapolis, MN, USA), neuregulin 1 (NRG; 10 ng/mL; R&D Systems, Minneapolis, MN, USA), and insulin-like growth factor 1 (IGF1; 100 ng/mL; R&D Systems, Minneapolis, MN, USA). Growth factors were supplemented every 3 days. When spheres appeared in the suspension culture, they were dissociated using StemPro Accutase (Life Technologies, Carlsbad, CA, USA), and reseeded in the suspension culture medium. Cells were grown in complete medium and treated with inhibitors 1 day after seeding. Five days later, the surviving cells were quantified by WST-1 staining (Roche Genentech, San Francisco, CA, USA).

phosphorylation of STAT3 = assay: Signal transduction assay, western blot; settings: 033 T cells
Protocol: (§3) Primary cultures of PDX cells in the serum-free sphere culture conditions were seeded in 384-well plates, at 500 cells per well. Two hours after plating, cells were treated with a drug library in three-fold and 10-point serial dilutions (n = 3, for each condition). Cells were incubated for 6 days at 37 °C, in a 5% CO2 humidified incubator, and the cell viability was analyzed using an adenosine triphosphate monitoring system based on firefly luciferase (ATPlite 1step; PerkinElmer, Waltham, MA, USA). The drug library was composed of 17 targeted agents that were included in the clinical guidelines or current clinical trials for the treatment of NSCLC (gefitinib, erlotinib, lapatinib, afatinib, neratinib, caneratinib, dacomitinib, infigratinib, vandetanib, sunitinib, imatinib, CI-1040, vemurafenib, palbociclib, crizotinib, sonidegib, buparlisib; all purchased from Selleckchem, Houston, TX, USA). The drugs were stored and diluted according to the manufacturer’s instructions. The tested concentrations for each drug were empirically derived, in order to investigate a clinically relevant spectrum of drug activities. IC50 values were calculated as an average of triplicate experiments using S+ Chip Analyzer (Samsung Electro-Mechanics Company, Ltd., Suwon, Korea). […]

[2] = tested on: phosphorylation of ERK1/2; assay: Signal transduction assay, western blot; settings: 033 T cells
Protocol: as §3

phosphorylation of MET = assay: Signal transduction assay, western blot; settings: 033 T cells
Protocol: as §1

033 T cells [3] = assay: Cell proliferation time course of 033 T cells (WST-1); settings: from day 5 onward
Protocol: as §2

[4] = resistant if IC50 > 1000 nmol/L

| SMILES | IC50 (033 T PDX cells; [4]) [nM] | effect on 033 T cell proliferation (in words) (033 T PDX cells) | further results |
| --- | --- | --- | --- |
| CS(=O)(=O)CCNCc1ccc(-c2ccc3ncnc(Nc4ccc(OCc5cccc(F)c5)c(Cl)c4)c3c2)o1 [lapatinib] | 1560 |  |  |
| C=CC(=O)Nc1cc2c(Nc3ccc(F)c(Cl)c3)ncnc2cc1OCCCN1CCOCC1 [canertinib] | 80 | effective |  |
| C#Cc1cccc(Nc2ncnc3cc(OCCOC)c(OCCOC)cc23)c1 [erlotinib] |  |  | IC50 (033 T PDX cells; […]): 836 nM |
| Nc1cc(C(F)(F)F)c(-c2cc(N3CCOCC3)nc(N3CCOCC3)n2)cn1 [buparlisib] | 507 |  |  |
| COc1cc2ncnc(Nc3ccc(F)c(Cl)c3)c2cc1OCCCN1CCOCC1 [gefitinib] |  | marked inhibitory effects |  |
| CCOc1cc2ncc(C#N)c(Nc3ccc(OCc4ccccn4)c(Cl)c3)c2cc1NC(=O)/C=C/CN(C)C [neratinib] |  | marked inhibitory effects | IC50 (033 T PDX cells; […]): 133 nM |
| CN(C)C/C=C/C(=O)Nc1cc2c(Nc3ccc(F)c(Cl)c3)ncnc2cc1O[C@H]1CCOC1 [afatinib] | 971 |  |  |
| C[C@@H](Oc1cc(-c2cnn(C3CCNCC3)c2)cnc1N)c1c(Cl)ccc(F)c1Cl [crizotinib] | 691 |  | tumor sphere formation (033 T cells [1]): impaired tumor sphere formation; phosphorylation of STAT3 (phosphorylation of STAT3): completely abolishing; phosphorylation of ERK1/2 [2]: completely abolishing; phosphorylation of MET (phosphorylation of MET): completely abolishing; cell proliferation (033 T cells [3]): significantly inhibited cell proliferation |
